# Results published in US20120231482A1, “METHOD, KIT OR DIAGNOSTIC FOR THE DETECTION OF REAGENTS WHICH INDUCE ALTERED CONTRACTILITY” (THE JOHNS HOPKINS UNIVERSITY, priority 2009, published 2012).
# What was measured:
# Assay in all cases: Modified biotin switch assay, sites of HNO modification
# Type in all cases: biochemical
# myson binding protein C = target: T1, myson binding protein C (Rattus norvegicus, UniProt P56741); details: for number of independent observations of peptide: Cys 475, 25 μM NCA or 500 μM AS; for Position of modified Cys: myosin binding protein C, Table 2
# T1 construct: Rat myofibrillar preparations, as described in [7], were obtained from frozen ventricles (Pel Freez Biologicals); tissue Pel Freez Biologicals; host or cells: myofibrils from frozen rat ventricles
# Procedure: (§1) Rat myofibrillar preparations, as described in [7], were obtained from frozen ventricles (Pel Freez Biologicals) minced in 20 volumes/tissue weight of 4° C. relax buffer (SRB (75 mM KCL, 10 mM imidazole pH 7.2, 2 mM MgCl2) plus 4 mM phosphocreatine, 1 mM ATP, 50 mM BDM, 1 mM benzamidine-HCL, 0.1 mM PMSF, 1 μg/ml leupeptin, 1 μg/ml pepstatin, 1% (v/v) Trixon X-100) and adjusted to 10 mM EDTA. Minced preparations were centrifuged for 8 min at 3000xg and the supernant was decanted. Resulting pellets were resuspended in 10 volumes of SRB plus 1% Triton X-100 and subjected to 6 strokes in a Duall tissue homogenizer and centrifuged as above. Pellets were gently resuspended and centrifuged as above twice more in SRB including 1% (v/v) Triton X-100, twice in SRB lacking Triton X-100 and once in K-60 buffer (60 mM KCL, 20 mM MOPS, 2 mM MgCl2 pH 7) before being resuspended in 5 volumes of K-60.
# (§2) Detection of HNO modifications by Modified Biotin Switch. HNO modified thiols were detected using a modification to the standard biotin switch protocol. In brief, 100 μg of rat myofibrils/treatment were diluted to 0.5 μg/μl in HEN (250 mM HEPES pH 7.7, 1 mM EDTA and 0.1 mM neocuproine) including 0.1% (w/v) SDS and exposed to a treatment for 10 min at 37° C. which was subsequently removed by acetone precipitation. Remaining free thiols were blocked by addition of 300 μl of HEN including 2.5% (w/v) SDS and 20 mM N-ethylmaleimide (NEM), incubated for 20 min at 50° C. Excess NEM was removed by acetone precipitation. HNO and/or NO modified thiols were reduced using 5 mM DTT or 1 mM ascorbate in 150 μl of HEN including 1% (w/v) SDS and biotinylated with 0.8 mM Biotin-HPDP (Pierce) for one hour at room temperature. Excess biotin-HPDP was removed by acetone precipitation (2 volumes) and resultant pellets were carefully washed with an additional volume of acetone. Biotinylated proteins were resuspended in 1 ml of HEN including 0.1% (w/v) SDS and captured by incubation with 15 μl of washed, packed Ultralink Immobilized Streptavidin (Pierce) for one hour at room temperature. Beads were washed four times in 50 bead volumes of HEN (twice including 0.1% (w/v) SDS, twice including 600 mM NaCl) and twice with EB (20 mM HEPES pH 7.7, 100 mM NaCl, 1 mM EDTA). Captured proteins were eluted with 40 μl of EB containing 100 mM DTT, mixed with 15 μl of 4×LDS sample buffer, boiled, separated by SDS PAGE and silver stained. For MS studies, biotinylated proteins were digested overnight with trypsin (Promega) prior to capture and washed ten additional times with 5 mM ammonium bicarbonate/20% acetonitrile before being eluted in 100 μl of wash buffer including 100 mM DTT as described. Captured peptides were identified using a LTQ linear ion trap tandem mass spectrometer (ThermoFinnigan, Waltham Mass. USA) with data searched against the rat IPI primary sequence database using the sorcerer searching platform (sagen).
# (§3) To investigate the modifications that underlie the difference seen in the functional effect of these two compounds we performed an analysis on the myofilament proteins, using a modified biotin-switch method, followed by mass spectrometry for identification (FIG. 3). Following treatment with HNO or control compounds, unmodified cysteines are blocked with NEM before treatment with a reducing agent and labeling the exposed cysteines with a biotin group (FIG. 3A). In this case, 5 mM DTT was used as the reducing agent because it was shown in the physiological studies to reverse the effect of the treatment. […] Tryptic or chymotryptic peptides containing the modified cysteine residues were captured and identified by LC/MS/MS. […] To parse the role of candidate sites of modification between these two effects a comparative proteomics experiment was designed where modifications specific to NCA treatment would be considered candidates for the Ca^2+ effect while sites identified in common between AS and NCA could be candidates for the force effect (FIG. 3C). […]
# troponin C (cardiac) = target: T2, troponin C (cardiac) (Rattus norvegicus, UniProt Q4PP99); details: for number of independent observations of peptide: Cys 35, tryptic peptide AAFDIFVLGAEDGCISTK, 25 μM NCA or 500 μM AS; for Position of modified Cys: troponin C, Table 2
# T2 construct: Rat myofibrillar preparations, as described in [7], were obtained from frozen ventricles (Pel Freez Biologicals); tissue Pel Freez Biologicals; host or cells: myofibrils from frozen rat ventricles
# Procedure: as §1, §2, §3
# myosin light chain 1 = target: T3, myosin light chain 1 (Rattus norvegicus, UniProt P16409); details: for number of independent observations of peptide: Cys 81, tryptic peptide ITYGQCGDVLR, 25 μM NCA or 500 μM AS; for Position of modified Cys: myosin light chain 1, Table 2
# T3 construct: Rat myofibrillar preparations, as described in [7], were obtained from frozen ventricles (Pel Freez Biologicals); tissue Pel Freez Biologicals; host or cells: myofibrils from frozen rat ventricles
# Procedure: as §1, §2, §3
# α actin = target: T4, α actin (Rattus norvegicus, UniProt P68035); details: 25 μM NCA or 500 μM AS
# T4 construct: Rat myofibrillar preparations, as described in [7], were obtained from frozen ventricles (Pel Freez Biologicals); tissue Pel Freez Biologicals; host or cells: myofibrils from frozen rat ventricles
# Procedure: as §1, §2, §3
# myosin heavy chain α = target: T5, myosin heavy chain α (Rattus norvegicus, UniProt P02563); details: for number of independent observations of peptide: Cys 37, 25 μM NCA or 500 μM AS; for Position of modified Cys: myosin heavy chain (α), Table 2
# T5 construct: Rat myofibrillar preparations, as described in [7], were obtained from frozen ventricles (Pel Freez Biologicals); tissue Pel Freez Biologicals; host or cells: myofibrils from frozen rat ventricles
# Procedure: as §1, §2, §3
# [1] = Cys 12, tryptic peptide DDEETTALVCDNGSLVK
# [2] = Cys 219, tryptic peptide LCYVALDFENEMATAASSSLEK
# T1 sequence (P56741 whole entry): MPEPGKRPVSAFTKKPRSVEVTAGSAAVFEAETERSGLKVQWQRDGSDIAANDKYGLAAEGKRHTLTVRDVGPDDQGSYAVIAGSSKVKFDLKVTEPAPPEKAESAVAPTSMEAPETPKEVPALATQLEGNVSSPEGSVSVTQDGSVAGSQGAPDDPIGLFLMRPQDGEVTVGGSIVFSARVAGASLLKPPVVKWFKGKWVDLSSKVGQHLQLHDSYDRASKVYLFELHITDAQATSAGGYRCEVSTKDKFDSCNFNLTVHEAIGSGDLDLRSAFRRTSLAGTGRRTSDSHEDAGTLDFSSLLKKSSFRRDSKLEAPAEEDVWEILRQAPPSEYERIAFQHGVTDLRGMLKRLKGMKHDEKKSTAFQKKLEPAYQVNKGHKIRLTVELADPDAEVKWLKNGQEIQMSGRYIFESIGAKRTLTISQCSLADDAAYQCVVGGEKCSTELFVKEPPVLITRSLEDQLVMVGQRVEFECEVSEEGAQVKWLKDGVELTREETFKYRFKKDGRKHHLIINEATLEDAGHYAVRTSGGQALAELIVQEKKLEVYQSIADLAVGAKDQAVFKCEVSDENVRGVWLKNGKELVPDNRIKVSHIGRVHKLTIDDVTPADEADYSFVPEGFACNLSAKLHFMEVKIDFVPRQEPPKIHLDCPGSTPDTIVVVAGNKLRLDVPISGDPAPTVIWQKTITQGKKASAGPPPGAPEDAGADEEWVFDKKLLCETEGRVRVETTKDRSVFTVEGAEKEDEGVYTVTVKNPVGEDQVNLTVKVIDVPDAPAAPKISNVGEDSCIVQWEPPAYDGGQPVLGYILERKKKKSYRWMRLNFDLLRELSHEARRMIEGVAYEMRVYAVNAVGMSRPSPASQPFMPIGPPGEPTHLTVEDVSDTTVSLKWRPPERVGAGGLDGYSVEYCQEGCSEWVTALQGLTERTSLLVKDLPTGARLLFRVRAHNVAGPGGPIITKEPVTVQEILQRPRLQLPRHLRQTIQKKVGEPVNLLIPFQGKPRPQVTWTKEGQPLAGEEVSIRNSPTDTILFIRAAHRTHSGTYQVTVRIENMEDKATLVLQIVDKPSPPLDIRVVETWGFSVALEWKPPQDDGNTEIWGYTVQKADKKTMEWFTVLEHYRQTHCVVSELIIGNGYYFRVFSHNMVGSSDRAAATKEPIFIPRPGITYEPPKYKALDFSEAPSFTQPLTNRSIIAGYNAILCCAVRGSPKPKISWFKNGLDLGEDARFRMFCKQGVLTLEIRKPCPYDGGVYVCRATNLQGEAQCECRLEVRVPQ
# T5 sequence (P02563 whole entry): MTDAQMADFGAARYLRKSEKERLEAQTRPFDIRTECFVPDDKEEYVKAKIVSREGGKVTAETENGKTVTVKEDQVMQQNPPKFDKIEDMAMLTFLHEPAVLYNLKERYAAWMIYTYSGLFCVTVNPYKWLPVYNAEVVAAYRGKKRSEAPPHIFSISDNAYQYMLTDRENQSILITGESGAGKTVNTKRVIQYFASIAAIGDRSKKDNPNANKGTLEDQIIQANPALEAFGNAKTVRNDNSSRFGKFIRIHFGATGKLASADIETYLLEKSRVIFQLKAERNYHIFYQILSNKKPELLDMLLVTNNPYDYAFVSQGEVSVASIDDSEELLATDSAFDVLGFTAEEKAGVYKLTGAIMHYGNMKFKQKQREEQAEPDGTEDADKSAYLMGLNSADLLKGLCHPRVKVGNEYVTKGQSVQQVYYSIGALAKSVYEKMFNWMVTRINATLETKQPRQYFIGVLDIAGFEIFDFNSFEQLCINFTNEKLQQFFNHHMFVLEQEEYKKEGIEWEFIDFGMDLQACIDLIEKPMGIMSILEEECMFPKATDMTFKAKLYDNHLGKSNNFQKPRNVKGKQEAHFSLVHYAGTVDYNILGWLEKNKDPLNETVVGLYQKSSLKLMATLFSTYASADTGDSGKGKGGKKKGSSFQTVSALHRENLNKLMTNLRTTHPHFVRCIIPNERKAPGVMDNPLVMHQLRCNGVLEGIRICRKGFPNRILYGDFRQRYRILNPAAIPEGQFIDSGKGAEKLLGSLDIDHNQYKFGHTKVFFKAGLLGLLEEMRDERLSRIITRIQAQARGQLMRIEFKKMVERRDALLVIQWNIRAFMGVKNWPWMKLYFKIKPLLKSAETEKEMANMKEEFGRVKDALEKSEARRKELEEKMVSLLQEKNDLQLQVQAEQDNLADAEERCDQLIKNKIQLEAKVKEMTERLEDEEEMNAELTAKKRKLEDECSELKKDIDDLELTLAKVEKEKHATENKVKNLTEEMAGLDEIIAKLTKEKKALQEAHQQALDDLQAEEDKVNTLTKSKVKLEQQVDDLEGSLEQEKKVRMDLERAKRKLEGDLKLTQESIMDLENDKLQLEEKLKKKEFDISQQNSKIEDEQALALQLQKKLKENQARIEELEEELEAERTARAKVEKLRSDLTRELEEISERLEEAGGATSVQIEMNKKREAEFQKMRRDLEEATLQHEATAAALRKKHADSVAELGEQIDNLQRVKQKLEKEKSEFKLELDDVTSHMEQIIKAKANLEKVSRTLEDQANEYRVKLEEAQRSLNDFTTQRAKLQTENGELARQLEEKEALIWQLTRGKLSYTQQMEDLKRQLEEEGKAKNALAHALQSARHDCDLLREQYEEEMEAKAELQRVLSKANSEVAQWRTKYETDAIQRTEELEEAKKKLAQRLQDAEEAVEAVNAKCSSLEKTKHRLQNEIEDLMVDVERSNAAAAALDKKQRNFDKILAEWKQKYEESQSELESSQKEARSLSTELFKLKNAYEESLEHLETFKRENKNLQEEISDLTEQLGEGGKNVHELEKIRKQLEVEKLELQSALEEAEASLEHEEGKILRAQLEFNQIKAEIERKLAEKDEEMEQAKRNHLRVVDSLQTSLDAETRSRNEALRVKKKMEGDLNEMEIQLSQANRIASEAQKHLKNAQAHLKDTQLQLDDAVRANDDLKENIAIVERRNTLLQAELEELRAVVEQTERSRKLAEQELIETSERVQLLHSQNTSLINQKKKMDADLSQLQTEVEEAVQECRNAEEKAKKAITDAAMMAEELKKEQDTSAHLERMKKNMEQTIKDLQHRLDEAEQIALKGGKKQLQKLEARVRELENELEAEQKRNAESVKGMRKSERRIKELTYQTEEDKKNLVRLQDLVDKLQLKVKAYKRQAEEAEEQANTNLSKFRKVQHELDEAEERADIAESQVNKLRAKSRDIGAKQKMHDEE
# T3 sequence (P16409 whole entry): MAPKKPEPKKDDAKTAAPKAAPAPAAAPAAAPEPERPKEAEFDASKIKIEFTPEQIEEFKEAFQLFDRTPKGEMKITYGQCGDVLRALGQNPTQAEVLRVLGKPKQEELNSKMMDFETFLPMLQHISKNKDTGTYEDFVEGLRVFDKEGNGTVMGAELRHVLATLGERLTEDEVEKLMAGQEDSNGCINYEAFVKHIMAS
structure (smiles),measurement,setting,value
"[Na+].[Na+].[O-][N+]([O-])=NO [AS, Angeli's Salt]",number of independent observations of peptide,myson binding protein C; chymotryptic peptide ECEVSEEGAQVKW,2
same,Position of modified Cys,myson binding protein C,475
same,number of independent observations of peptide,troponin C (cardiac),2
same,Position of modified Cys,troponin C (cardiac),35
same,number of independent observations of peptide,myosin light chain 1,2
same,Position of modified Cys,myosin light chain 1,81
same,number of independent observations of peptide,"α actin; Cys 12, chymotryptic peptide VCDNGSLVKAGF",2
same,number of independent observations of peptide,α actin; [1],3
same,number of independent observations of peptide,α actin; [2],1
same,number of independent observations of peptide,myosin heavy chain α; chymotryptic peptide DIRTECFVPDDKEEY,3
same,number of independent observations of peptide,myosin heavy chain α; tryptic peptide TECFVPDDKEEYVK,3
same,Position of modified Cys,myosin heavy chain α,37(α)
"CC(=O)OC1(N=O)CCCCC1 [NCA, 1-nitrosocyclohexylacetate]",number of independent observations of peptide,myson binding protein C; tryptic peptide VEFECEVSEEGAQVK,1
same,Position of modified Cys,myson binding protein C,475
same,number of independent observations of peptide,troponin C (cardiac),2
same,Position of modified Cys,troponin C (cardiac),35
same,number of independent observations of peptide,myosin light chain 1,2
same,Position of modified Cys,myosin light chain 1,81
same,number of independent observations of peptide,α actin; [1],3
same,number of independent observations of peptide,α actin; [2],1
same,number of independent observations of peptide,"α actin; Cys 257, chymotryptic peptide RCPETLFQPSF",1
same,number of independent observations of peptide,myosin heavy chain α; tryptic peptide TECFVPDDKEEYVK,3
same,Position of modified Cys,myosin heavy chain α,37(α)
